Reference: patent US8618099B2, “Pyrazolyl-pyrimidine derivatives and their use as potassium channel modulators” (Ataxion, Inc., priority 2008, dated 2013)

What was measured:
[1] = biological target: T1, small-conductance Ca2+-activated K+ channels (SK channels, subtype 3), hSK3 (Homo sapiens, UniProt Q9UGI6); experiment: Whole-cell patch-clamp recording of ionic current through hSK3 channels expressed in HEK293 cells; format: cell-based; conditions: HEK293 cells expressing hSK3 channels
T1 construct: expressed in transfected cells; host or cells: HEK293
Procedure: The compounds of the invention may be tested for their usefulness as potassium channel modulating agents e.g. such as described in WO 2006/100212.
The ionic current through small-conductance Ca^2+-activated K^+ channels (SK channels, subtype 3) is recorded using the whole-cell configuration of the patch-clamp technique in a classic patch-clamp set-up using HEK293 tissue culture cells expressing hSK3 channels as described in e.g. WO 2006/100212
The SC100 value determined is defined as the Stimulating Concentration required for increasing the baseline current by 100%. The SC100 value determined for Compound 4.1 of the invention was 0.022±0.013 μM, which is an indication of its SK3 activating properties.

melting point: 186 to 187 °C
SC100 (Stimulating Concentration required for increasing the baseline current by 100%) [1]: 0.022 ± 0.013 µM
SMILES: Cc1cc(C)n(-c2nc(Nc3ccc(Cl)cc3)cc(N3CCOCC3)n2)n1 [Compound 4.1, (4-Chloro-phenyl)-[2-(3,5-dimethyl-pyrazol-1-yl)-6-morpholin-4-yl-pyrimidin-4-yl]-amine]
